Entries after “also recorded” stand apart in the source; their conditions may differ. Ends that are not written are not given here.
How the values were obtained:
peptide-pulsed T2 cells [1] = test: IFN-gamma ELISA assay of established CTL lines; type: cell-based, human; details: against target cells pulsed with the corresponding peptide vs without peptide pulse
Procedure: CTLs were expanded in culture using the method similar to the one described by Riddell et al. (Walter E A et al., N Engl J Med 1995 Oct. 19, 333(16): 1038-44; Riddell S R et al., Nat Med 1996 February, 2(2): 216-23). A total of 5×10^4 CTLs were suspended in 25 ml of AIM-V/5% AS medium with 2 kinds of human B-lymphoblastoid cell lines, inactivated by Mitomycin C, in the presence of 40 ng/ml of anti-CD3 monoclonal antibody (Pharmingen). One day after initiating the cultures, 120 IU/ml of IL-2 were added to the cultures. The cultures were fed with fresh AIM-V/5% AS medium containing 30 IU/ml of IL-2 on days 5, 8 and 11 (Tanaka H et al., Br J Cancer 2001 Jan. 5, 84(1): 94-9; Umano Y et al., Br J Cancer 2001 Apr. 20, 84(8): 1052-7; Uchida N et al., Clin Cancer Res 2004 Dec. 15, 10(24): 8577-86; Suda T et al., Cancer Sci 2006 May, 97(5): 411-9; Watanabe T et al., Cancer Sci 2005 August, 96(8): 498-506).
(§1) Specifically, peptide-pulsed T2 (1×10^4/well) was prepared as stimulator cells. Cultured cells in 48 wells were used as responder cells. IFN-gamma ELISPOT assay and IFN-gamma ELISA assay were performed under manufacture procedure.

peptide-pulsed T2 cells [2] = test: IFN-gamma ELISPOT assay on CTLs induced with peptide-pulsed DCs; type: cell-based, human; details: for IFN-gamma production of CTLs induced with the peptide (ELISPOT): against peptide-pulsed target cells, compared with control without peptide; for CTL inducibility / specific CTL activity of CTLs stimulated with the peptide: summary statement
From the text: Monocyte-derived dendritic cells (DCs) were used as antigen-presenting cells to induce cytotoxic T lymphocyte (CTL) responses against peptides presented on human leukocyte antigen (HLA). DCs were generated in vitro as described elsewhere (Nakahara S et al., Cancer Res 2003 Jul. 15, 63(14): 4112-8). Specifically, peripheral blood mononuclear cells (PBMCs) isolated from a normal volunteer (HLA-A*0201 positive) by Ficoll-Plaque (Pharmacia) solution were separated by adherence to a plastic tissue culture dish (Becton Dickinson) so as to enrich them as the monocyte fraction. The monocyte-enriched population was cultured in the presence of 1,000 U/ml of granulocyte-macrophage colony-stimulating factor (R&D System) and 1,000 U/ml of interleukin (IL)-4 (R&D System) in AIM-V Medium (Invitrogen) containing 2% heat-inactivated autologous serum (AS). After 7 days of culture, the cytokine-induced DCs were pulsed with 20 micro-g/ml of each of the synthesized peptides in the presence of 3 micro-g/ml of beta 2-microglobulin for 3 hrs at 37 degrees C. in AIM-V Medium. The generated cells appeared to express DC-associated molecules, such as CD80, CD83, CD86 and HLA class II, on their cell surfaces (data not shown). These peptide-pulsed DCs were then inactivated by X-irradiation (20 Gy) and mixed at a 1:20 ratio with autologous CD8+ T cells, obtained by positive selection with CD8 Positive Isolation Kit (Dynal). These cultures were set up in 48-well plates (Corning); each well contained 1.5×10^4 peptide-pulsed DCs, 3×10^5 CD8+ T cells and 10 ng/ml of IL-7 (R&D System) in 0.5 ml of AIM-V/2% AS medium. Three days later, these cultures were supplemented with IL-2 (CHIRON) to a final concentration of 20 IU/ml. On days 7 and 14, the T cells were further stimulated with the autologous peptide-pulsed DCs. The DCs were prepared each time by the same way described above. CTLs were tested against peptide-pulsed T2 cells after the 3rd round of peptide stimulation on day 21 (Tanaka H et al., Br J Cancer 2001 Jan. 5, 84(1): 94-9; Umano Y et al., Br J Cancer 2001 Apr. 20, 84(8): 1052-7; Uchida N et al., Clin Cancer Res 2004 Dec. 15, 10(24): 8577-86; Suda T et al., Cancer Sci 2006 May, 97(5): 411-9; Watanabe T et al., Cancer Sci 2005 August, 96(8): 498-506).
as §1

[3] = system: COS7 cells transfected with ECT2 and HLA-A*0201; test: Specific CTL activity against target cells exogenously expressing ECT2 and HLA-A*0201; type: cell-based, African green monkey; details: for Specific CTL activity against COS7 cells transfected with both ECT2 and HLA-A*0201: CTL clone (SEQ ID NO: 1) or CTL line (SEQ ID NO: 21) as effector cells; for Specific CTL activity against control COS7 cells expressing either HLA-A*0201 or ECT2: controls transfected with only one gene
From the text: The cDNA encoding an open reading frame of target genes or HLA-A*0201 was amplified by PCR. The PCR-amplified product was cloned into a vector. The plasmids were transfected into COS7, which is the target genes and HLA-A*0201-null cell line, using lipofectamine 2000 (Invitrogen) according to the manufacturer's recommended procedures. After 2 days from transfection, the transfected cells were harvested with versene (Invitrogen) and used as the target cells (5×10^4 cells/well) for CTL activity assay.
The established CTL lines and clones raised against these peptides was examined for the ability to recognize target cells that exogenously express ECT2 and HLA-A*0201 molecule. […] COS7 cells transfected with either full length of ECT2 or HLA-A*0201 were prepared as the controls.

peptide-pulsed T2 cells [4] = test: IFN-gamma ELISA assay of CTL clones established by limiting dilution; type: cell-based, human; details: against target cells pulsed with peptide vs not pulsed
Procedure: The dilutions were made to have 0.3, 1, and 3 CTLs/well in 96 round-bottomed micro titer plate (Nalge Nunc International). CTLs were cultured with 1×10^4 cells/well of 2 kinds of human B-lymphoblastoid cell lines, 30 ng/ml of anti-CD3 antibody, and 125 U/ml of IL-2 in a total of 150 micro-l/well of AIM-V Medium containing 5% AS. 50 micro-1/well of IL-2 were added to the medium 10 days later so to reach a final concentration of 125 U/ml IL-2. CTL activity was tested on the 14th day, and CTL clones were expanded using the same method as described above (Uchida N et al., Clin Cancer Res 2004 Dec. 15, 10(24): 8577-86; Suda T et al., Cancer Sci 2006 May, 97(5): 411-9; Watanabe T et al., Cancer Sci 2005 August, 96(8): 498-506).
as §1

| Substance | IFN-gamma production of CTL lines stimulated with the peptide (ELISA) (peptide-pulsed T2 cells [1]) | IFN-gamma production of CTLs induced with the peptide (ELISPOT) (peptide-pulsed T2 cells [2]) | CTL inducibility / specific CTL activity of CTLs stimulated with the peptide (peptide-pulsed T2 cells [2]) | Specific CTL activity against COS7 cells transfected with both ECT2 and HLA-A*0201 ([3]; listed as ECT2-A02-10-33) | Specific CTL activity against control COS7 cells expressing either HLA-A*0201 or ECT2 [3] | IFN-gamma production of CTL clones stimulated with the peptide (ELISA) (peptide-pulsed T2 cells [4]; listed as ECT2-A02-9-34) | Specific CTL activity against COS7 cells transfected with both ECT2 and HLA-A*0201 ([3]; listed as ECT2-A02-9-34) | IFN-gamma production of CTL clones stimulated with the peptide (ELISA) (peptide-pulsed T2 cells [4]; listed as ECT2-A02-9-664) |
| --- | --- | --- | --- | --- | --- | --- | --- | --- |
| NLLIgSTSYV (NLLIGSTSYV; not fully specified; printed as NLLIgSTSYV) [SEQ ID NO: 21] | potent IFN-gamma production | potent IFN-gamma production | significant and specific CTL activity | potent CTL activity; also recorded: specific CTL activity | no significant specific CTL activity was detected |  |  |  |
| LLIGSTSYV [SEQ ID NO: 1] | potent IFN-gamma production | potent IFN-gamma production | significant and specific CTL activity |  | no significant specific CTL activity was detected | potent IFN-gamma production | potent CTL activity; also recorded: specific CTL activity |  |
| 3 (FLFNDCLEI) [compound 3] |  |  | strong CTL inducibility |  |  |  |  |  |
| 1 (LLIGSTSYV) [compound 1] |  |  | strong CTL inducibility |  |  |  |  |  |
| 21 (NLLIGSTSYV) [compound 21] |  |  | strong CTL inducibility |  |  |  |  |  |
| FLFNDCLEI [SEQ ID NO: 3] | potent IFN-gamma production | potent IFN-gamma production | significant and specific CTL activity |  |  |  |  | potent IFN-gamma production |

Reference: patent US8951975B2, “ECT2 peptides and vaccines including the same” (OncoTherapy Science, Inc., priority 2010, dated 2015)
